System: 12 single or co-culture in vitro tissue models of primary cells
Assay: Culture/co-culture cell model panel, extracellular biomarkers (DiscoveRx); as to CCL2/MCP-1: reference of the scale not given here; as to CD141/Thrombomodulin: reference of the scale not given here; as to CD142/Tissue Factor: reference of the scale not given here; as to CD38: reference of the scale not given here; as to CD40: reference of the scale not given here; as to CD69: reference of the scale not given here; as to CXCL8/IL-8: reference of the scale not given here; as to CXCL9/MIG: reference of the scale not given here; as to IL-1alpha: reference of the scale not given here; as to M-CSF: reference of the scale not given here; as to PBMC Cytotoxicity: reference of the scale not given here; as to SRB: reference of the scale not given here; as to sPGE2: reference of the scale not given here; as to sTNF-alpha: reference of the scale not given here
Assay type: cell-based, human
[1] = HDF3CGF stimulated fibroblasts, 1.00E3 nM
[2] = HDF3CGF stimulated fibroblasts, 1.00E4 nM
[3] = HPNo Huvec+PBMC unstimulated, 1.00E0 nM
[4] = HPNo Huvec+PBMC unstimulated, 1.00E1 nM
[5] = HPNo Huvec+PBMC unstimulated, 1.00E2 nM
[6] = HPNo Huvec+PBMC unstimulated, 1.00E3 nM
[7] = HPNo Huvec+PBMC unstimulated, 1.00E4 nM

## CN1c2ccc(-c3cncc(Cl)c3N3CCC4(CC3)CNC(=O)O4)cc2CS1(=O)=O [CMPD2]
[1]
  EGFR: -0.052
  M-CSF: -0.096
  MMP-1: 0.008
  PAI-I: -0.00267
  Proliferation_72hr: -0.251
  SRB: 0.000361
  TIMP-1: -0.053
  TIMP-2: 0.124
[2]
  CCL2/MCP-1: -0.114
  CD54/ICAM-1: -0.054
  CD106/VCAM-1: 0.046
  CXCL8/IL-8: -0.128
  CXCL9/MIG: -0.076
  CXCL10/IP-10: 0.028
  CXCL11/I-TAC: -0.031
  Collagen I: 0.036
  Collagen III: 0.126
  EGFR: -0.055
  M-CSF: -0.106
  MMP-1: 0.00332
  PAI-I: -0.018
  Proliferation_72hr: -0.340
  SRB: -0.00651
  TIMP-1: -0.067
  TIMP-2: 0.106
[3]
  CCL2/MCP-1: 0.047
  CD38: 0.008
  CD40: -0.048
  CD106/VCAM-1: 0.122
  CD141/Thrombomodulin: 0.013
  CD142/Tissue Factor: 0.008
[4]
  CCL2/MCP-1: 0.017
  CD38: -0.016
  CD40: -0.068
  CD106/VCAM-1: 0.183
  CD141/Thrombomodulin: -0.006
  CD142/Tissue Factor: 0.035
[5]
  CCL2/MCP-1: 0.000304
  CD38: 0.014
  CD40: -0.055
  CD106/VCAM-1: 0.274
  CD141/Thrombomodulin: 0.005
  CD142/Tissue Factor: 0.003
[6]
  CCL2/MCP-1: 0.022
  CD38: -0.028
  CD40: -0.055
  CD106/VCAM-1: 0.205
  CD141/Thrombomodulin: 0.027
  CD142/Tissue Factor: -0.00853
[7]
  CCL2/MCP-1: 0.015
  CD38: -0.095
  CD40: -0.048
  CD106/VCAM-1: 0.147
  CD141/Thrombomodulin: 0.018
  CD142/Tissue Factor: -0.051
HPNo, 1.00E0 nM
  CD69: 0.011
  CXCL8/IL-8: 0.022
  CXCL9/MIG: 0.062
  M-CSF: 0.018
  SRB: -0.102
  sPGE2: 0.045
  sTNF-alpha: 0.140
HPNo, 1.00E1 nM
  CD69: -0.097
  CXCL8/IL-8: -0.006
  CXCL9/MIG: -0.00447
  M-CSF: -0.015
  SRB: -0.043
  sPGE2: 0.026
  sTNF-alpha: 0.045
HPNo, 1.00E2 nM
  CD69: 0.035
  CXCL8/IL-8: 0.008
  CXCL9/MIG: 0.020
  M-CSF: -0.038
  SRB: 0.011
  sPGE2: 0.045
  sTNF-alpha: 0.037
HPNo, 1.00E3 nM
  CD69: -0.007
  CXCL8/IL-8: 0.014
  CXCL9/MIG: -0.00342
  M-CSF: 0.051
  SRB: 0.00149
  sPGE2: 0.054
  sTNF-alpha: -0.000698
HPNo, 1.00E4 nM
  CD69: -0.024
  CXCL8/IL-8: 0.024
  CXCL9/MIG: -0.063
  M-CSF: -0.029
  SRB: -0.014
  sPGE2: 0.013
  sTNF-alpha: 0.230
LPS Huvec+PBMC, 1.00E0 nM
  CCL2/MCP-1: 0.007
  CD40: -0.057
  CD69: -0.008
  CD106/VCAM-1: 0.052
  CD141/Thrombomodulin: 0.041
  CD142/Tissue Factor: 0.093
  CXCL8/IL-8: -0.00258
  IL-1alpha: 0.057
  M-CSF: 0.019
  SRB: -0.024
  sPGE2: 0.070
  sTNF-alpha: 0.028
LPS Huvec+PBMC, 1.00E1 nM
  CCL2/MCP-1: -0.031
  CD40: -0.098
  CD69: -0.024
  CD106/VCAM-1: 0.019
  CD141/Thrombomodulin: 0.064
  CD142/Tissue Factor: 0.086
  CXCL8/IL-8: -0.035
  IL-1alpha: 0.041
  M-CSF: -0.003
  SRB: -0.065
  sPGE2: 0.126
  sTNF-alpha: 0.036
LPS Huvec+PBMC, 1.00E2 nM
  CCL2/MCP-1: -0.057
  CD40: -0.098
  CD69: 0.050
  CD106/VCAM-1: 0.052
  CD141/Thrombomodulin: 0.070
  CD142/Tissue Factor: 0.084
  CXCL8/IL-8: -0.122
  IL-1alpha: 0.033
  M-CSF: -0.006
  SRB: -0.068
  sPGE2: 0.155
  sTNF-alpha: 0.039
LPS Huvec+PBMC, 1.00E3 nM
  CCL2/MCP-1: -0.096
  CD40: -0.100
  CD69: 0.022
  CD106/VCAM-1: 0.055
  CD141/Thrombomodulin: 0.054
  CD142/Tissue Factor: 0.086
  CXCL8/IL-8: -0.148
  IL-1alpha: 0.00095
  M-CSF: -0.00124
  SRB: -0.066
  sPGE2: 0.173
  sTNF-alpha: 0.034
LPS Huvec+PBMC, 1.00E4 nM
  CCL2/MCP-1: -0.102
  CD40: -0.101
  CD69: 0.034
  CD106/VCAM-1: 0.035
  CD141/Thrombomodulin: 0.062
  CD142/Tissue Factor: 0.080
  CXCL8/IL-8: -0.154
  IL-1alpha: -0.070
  M-CSF: -0.021
  SRB: -0.070
  sPGE2: 0.182
  sTNF-alpha: -0.175
SAg, 1.00E0 nM
  CCL2/MCP-1: 0.032
  CD38: -0.023
  CD40: -0.085
  CD69: 0.033
  CXCL8/IL-8: 0.067
  CXCL9/MIG: -0.004
  PBMC Cytotoxicity: 0.038
  Proliferation: 0.024
  SRB: -0.013
SAg, 1.00E1 nM
  CCL2/MCP-1: -0.012
  CD38: -0.063
  CD40: -0.169
  CD69: 0.018
  CXCL8/IL-8: -0.038
  CXCL9/MIG: -0.018
  PBMC Cytotoxicity: 0.015
  Proliferation: 0.017
  SRB: -0.031
SAg, 1.00E2 nM
  CCL2/MCP-1: -0.066
  CD38: -0.040
  CD40: -0.131
  CD69: 0.026
  CXCL8/IL-8: -0.133
  CXCL9/MIG: -0.055
  PBMC Cytotoxicity: 0.00148
  Proliferation: 0.021
  SRB: -0.056
SAg, 1.00E3 nM
  CCL2/MCP-1: -0.072
  CD38: -0.069
  CD40: -0.122
  CD69: 0.050
  CXCL8/IL-8: -0.196
  CXCL9/MIG: -0.061
  PBMC Cytotoxicity: 0.00529
  Proliferation: 0.010
  SRB: -0.049
SAg, 1.00E4 nM
  CCL2/MCP-1: -0.111
  CD38: -0.058
  CD40: -0.144
  CD69: 0.006
  CXCL8/IL-8: -0.208
  CXCL9/MIG: -0.061
  PBMC Cytotoxicity: 0.00852
  Proliferation: -0.041
  SRB: -0.053

From PMC5224920, “Assessing the mechanism and therapeutic potential of modulators of the human Mediator complex-associated protein kinases” (eLife, 2016)
